Each structure is given as a SMILES string. Peptide text beside a SMILES is read from it. * marks the point of attachment. Decanoyl = CCCCCCCCCC(=O)*; CH2Cl = ClC*

For this experiment, the target named is cathepsin B (Homo sapiens, UniProt P07858). Kind of experiment: Cathepsin B activity assay. To be noted: cathepsin B, N = 3. Format: biochemical. As for the experimental part:
Fig 3 Comparison of QUB-F1 and furin I versus cathepsin B. Cathepsin B activity was assessed in the presence or absence of various concentrations of QUB-F1 or furin I (N = 3). Data represent mean ± s.e.m.

For `CCCCCCCCCC(=O)N[C@@H](CCCNC(=N)N)C(=O)N[C@H](C(=O)N[C@@H](CCCCN)C(=O)N[C@@H](CCCNC(=N)N)C(=O)CCl)C(C)C` [furin I, Decanoyl-RVKR-chloromethylketone (CMK), reference compound] (Decanoyl-RVKR-CH2Cl), the IC50 stood at 56 nM.

The record behind these values is article PMC4961418, “A Selective Irreversible Inhibitor of Furin Does Not Prevent Pseudomonas Aeruginosa Exotoxin A-Induced Airway Epithelial Cytotoxicity” (PLoS ONE, 2016).
